Where “and” joins values, the source holds several entries; their conditions need not be identical. Equal entries are not always repeated.
Key:
[1] = tested on: 6-OHDA-treated Neuro-2a cells; assay: Mitochondrial membrane potential detection (TMRM) in 6-OHDA-treated cells; format: cell-based, murine; conditions: compound 10 µM; 6-OHDA 120 µM; TMRM
Method: We determined the effect of polyphenolic compounds from M. amurensis on 6-OHDA-induced mitochondrial dysfunction in Neuro-2a cells (Figure 6a,b).
Figure 6 The effect of polyphenolic compounds isolated from M. amurensis heartwood on mitochondrial membrane potential in Neuro-2a cells treated with 6-OHDA (120 μM) (a,b). Polyphenolic compounds isolated from M. amurensis heartwood were used at concentrations 10, 1, 0.1 μM. The data are presented as means ± SEM of three independent replicates. (*) and (***) indicate, respectively, p < 0.05 and p < 0.001 versus 6-OHDA-treated cells.
The cells were incubated for 1 h in a 96-well plate (1 × 10^4 cells/well) with polyphenolic compounds (0.1, 1 and 10 µM). Then, 6-OHDA (120 µM) was added, and cell suspension was incubated for 1 h. Cells incubated without 6-OHDA and compounds and with 6-OHDA alone were used as positive and negative control, respectively. The tetramethylrhodamine methyl (TMRM) (Sigma-Aldrich, St. Louis, MO, USA) solution (500 nM) was added to each well and cells were incubated for 30 min at 37 °C. The intensity of fluorescence was measured using a PHERAstar FSplate reader (BMG Labtech, Ortenberg, Germany) at λex = 540 nm and λem = 590 nm. The data were processed by MARS Data Analysis v. 3.01R2 (BMG Labtech, Ortenberg, Germany).

HSV-1 = assay: Virucidal activity, CPE inhibition assay (HSV-1 pretreated with compounds); format: cell-based, HSV-1 strain L2; conditions: for IC50: Human alphaherpesvirus 1, virus pretreated with compound (virucidal), Vero cells, 100 TCID50/mL; for SI: ratio of CC50 to IC50, virucidal scheme
[2] = tested on: 6-OHDA-treated Neuro-2a cells; assay: ROS analysis in 6-OHDA-treated cells (H2DCF-DA); format: cell-based, murine; conditions: 6-OHDA 120 µM; for reduction of ROS levels in 6-OHDA-treated Neuro-2a cells: compound 1 µM
Method: We studied the effect of polyphenolic compounds set on ROS levels in 6-OHDA-treated Neuro-2a cells (Figure 5a–d).
Figure 5 The effect of polyphenolic compounds isolated from M. amurensis heartwood on ROS levels in Neuro-2a cells treated with 6-OHDA (120 μM) (a–d). Polyphenolic compounds isolated from M. amurensis heartwood were used at concentrations 10, 1, 0.1 μM. The data are presented as means ± SEM of three independent replicates.
After 24 h of adhesion, Neuro-2a cells (5 × 10^4 cells/mL) were incubated with polyphenolic compounds at concentrations of 0.1, 1, and 10 µM for 1 h. Then, 120 µM of 6-OHDA or 1 mM of PQ were added to each well, and cells were incubated for 1 h. To study the ROS formation, 20 µL of 2,7-dichlorodihydrofluorescein diacetate solution (H2DCF-DA, Sigma-Aldrich, St. Louis, MO, USA) were added to each well, so that the final concentration was 10 µM. Then, the microplate was incubated for 30 min at 37 °C.

Row | Compound | increase of mitochondrial membrane potential [1] | IC50 (HSV-1; CPE assay) | SI (HSV-1) | reduction of ROS levels in 6-OHDA-treated Neuro-2a cells [2] | virucidal activity against HSV-1 (in words) (HSV-1; CPE assay, virus pretreated with compound) | effect on ROS levels in 6-OHDA-treated Neuro-2a cells (in words) ([2]; compounds at 10, 1, 0.1 µM)
1 | Oc1ccc(/C=C/c2cc(O)cc(O)c2)cc1 [Compound 1, resveratrol] | 8–12% | 9.6 µg/mL and 42.1 µM | 12.8 ± 1.9 | approximately 15% | – | –
2 | O=C1C[C@@H](c2ccc(O)cc2)Oc2cc(O)ccc21 [Compound 6, liquiritigenin] | 8–12% | – | – | 15% | did not show virucidal activity | dose-dependent effect
3 | Oc1cc(O)cc(/C=C/c2ccc3c(c2)O[C@H](c2cc(O)cc(O)c2)[C@@H](c2ccc(O)c(O)c2)O3)c1 [Compound 9, maackin] | 8–12% | 2.4 µg/mL and 4.9 µM | 112.3 and 112.3 ± 13.5 | – | – | –
4 | Oc1ccc(/C=C/c2cc(O)cc3c2[C@H](c2cc(O)cc(O)c2)[C@@H](c2ccc(O)c(O)c2)O3)cc1 [Compound 13, scirpusin A] | – | 2.6 µg/mL and 5.5 µM | – | 43% | – | –
